Test results as given in ChEMBL document CHEMBL4350979, “Dehydrodieugenol B derivatives as antiparasitic agents: Synthesis and biological activity against Trypanosoma cruzi” (Eur J Med Chem, 2019).
Activity calls are given as the source filed them. The rule behind the calls is not given here. Square brackets hold non-standard residues; d marks the D form. Peptide text beside a SMILES is read from it. * marks the point of attachment. NHCH2CH2OH = OCCN*; For = O=C*

Experiments:
[1] = Cytotoxicity against mouse NCTC-929 cells assessed as reduction in cell viability incubated for 48 hrs by MTT assay; type: cell-based; settings: NCTC-929 (L929) cells
[2] = system: Trypanosoma cruzi; assay: Antitrypanosomal activity against Trypanosoma cruzi amastigotes infected in BALB/c mouse peritoneal macrophages assessed as decrease in parasitic load with in the cell incubated for 48 hrs by Giemsa staining based light microscopy; type: functional, organism-based
[3] = system: Trypanosoma cruzi; assay: Antitrypanosomal activity against Trypanosoma cruzi strain Y trypomastigotes maintained in Rhesus monkey […] cells assessed as decrease in trypomastigotes cell viability incubated for 24 hrs by resazurin dye based colorimetric assay; type: functional, organism-based
[4] = system: Trypanosoma cruzi; assay: Induction of mitochondrial membrane depolarization in Trypanosoma cruzi strain Y trypomastigotes assessed as reduction in mitochondrial membrane potential at 50 uM measured after 120 mins by JC-1 probe based flow cytometry; type: functional, organism-based
[5] = Selectivity index, ratio of CC50 for mouse NCTC-929 cells to IC50 for Trypanosoma cruzi amastigotes infected in BA;B/c mouse peritoneal macrophages; type: toxicity; settings: read-out: Ratio CC50/IC50
[6] = system: Trypanosoma cruzi; assay: Induction of plasma membrane electric potential depolarization in Trypanosoma cruzi strain Y trypomastigotes at 0.5 mg/ml measured after 60 mins by DiSBAC2(3) dye based flow cytometry; type: functional

| Compound | CC50 at 48 h [1] [µM] | IC50 [2] [µM] | IC50 [3] [µM] | inhibition [4] | selectivity ratio [5] | Activity [6] [%] |
| --- | --- | --- | --- | --- | --- | --- |
| COc1cc(CC(C)O)ccc1Oc1cc(CC(C)O)cc(OC)c1OC (stereo unspecified) | > 200 | > 30 | > 100 | – | – | – |
| N#CC(C#N)=NNc1cccc(Cl)c1 | – | – | – | Active | – | – |
| O=C(Cn1ccnc1[N+](=O)[O-])NCc1ccccc1 [BENZNIDAZOLE] | 191 | 5 | 17.7 | – | 38.1 | – |
| CCCOc1c(OC)cc(CCC)cc1Oc1ccc(CCC)cc1OC | > 200 | > 30 | > 100 | – | – | – |
| CC(C)C[C@@H](NC(=O)[C@H](C)NC(=O)CNC(=O)[C@@H](NC=O)C(C)C)C(=O)N[C@@H](C)C(=O)N[C@@H](C(=O)N[C@H](C(=O)N[C@@H](C(=O)N[C@@H](Cc1c[nH]c2ccccc12)C(=O)N[C@H](CC(C)C)C(=O)N[C@@H](Cc1c[nH]c2ccccc12)C(=O)N[C@H](CC(C)C)C(=O)N[C@@H](Cc1c[nH]c2ccccc12)C(=O)N[C@H](CC(C)C)C(=O)N[C@@H](Cc1c[nH]c2ccccc12)C(=O)NCCO)C(C)C)C(C)C)C(C)C [GRAMICIDIN D] (For-VGA[dL]A[dV]V[dV]W[dL]W[dL]W[dL]W-NHCH2CH2OH) | – | – | – | – | – | 100 |
| CCCc1ccc(Oc2cc(CCC)cc(OC)c2OC)c(OC)c1 | > 200 | 13.3 | > 100 | – | > 15.4 | – |
